Results: US9120785B2, “Pyridyl aminopyridines as Syk inhibitors” (Merck Sharp & Dohme Corp., priority 2011, dated 2015)

Each molecule was assayed against recombinant human GST-Syk (Homo sapiens (Human), UniProt P43405) (assay: Homogeneous Time-Resolved Fluorescence (HTRF) assay for the recombinant human Syk enzyme). Conditions: recombinant human GST-Syk 5 pM, ATP 25 μM, 10-dose titration; read-out: rhSyk (nM) IC50.
Assay type: biochemical
Procedure: Homogeneous Time-Resolved Fluorescence (HTRF) Assay for the Recombinant Human Syk Enzyme:
A recombinant GST-hSyk fusion protein was used to measure potency of compounds to inhibit human Syk activity. The recombinant human GST-Syk ([…] #08-176) (5 pM final concentration) was incubated with various concentrations of the inhibitor diluted in DMSO (0.1% final concentration) for 10 minutes at room temperature in 15 mM Tris-HCl (pH 7.5), 0.01% tween 20, 2 mM DTT in 384 well plate format. To initiate the reaction the biotinylated substrate peptide (250 nM final concentration) that contains the phosphorylation site for Syk was added with magnesium (5 mM final concentration) and ATP (25 μM final concentration). Final volume of the reaction was 10 μL. Phosphorylation of the peptide was allowed to proceed for 45 minutes at room temperature. To quench the reaction and detect the phosphorylated product, 2 nM of a Europium-anti-phosphotyrosine antibody (Perkin Elmer #AD0161) and 70 nM SA-APC (Perkin-Elmer #CR130-100) were added together in 15 mM Tris pH 7.5, 40 mM EDTA, 0.01% tween 20. Final volume of the quenching solution was 10 μL. The resulting HTRF signal was measured after 30 minutes on an EnVision (Perkin-Elmer) reader using a time-resolved fluorescence protocol.

IC50 [nM]	SMILES
278	CCCCOC(=O)[C@H]1CC[C@H]([C@@](C)(O)c2ncc(-c3cc(C)cc(Nc4cc(C)c(F)cn4)n3)s2)CC1 (single isomer, unassigned) [Example 9, Enantiomer 1, butyl trans-4-[1-(5-{6-[(5-fluoro-4-methylpyridine-2-yl)amino]-4-methylpyridine-2-yl}-1,3-thiazol-2-yl)-1-hydroxyethyl]cyclohexanecarboxylate]
0.5	Cc1cc(Nc2cc(C(F)F)ccn2)nc(-c2cnc(C(C)(O)[C@H]3CC[C@H](C(=O)O)CC3)s2)c1 (single isomer, unassigned) [Example 14-4, trans-4-{1-[5-(6-{[4-(difluoromethyl)pyridin-2-yl]amino}-4-methylpyridin-2-yl)-1,3-thiazol-2-yl]-1-hydroxyethyl}cyclohexanecarboxylic acid]
1.1	Cc1cc(Nc2cc(C(F)(F)F)ccn2)nc(-c2cnc(C(O)[C@H]3CC[C@H](C(=O)O)CC3)s2)c1 (single isomer, unassigned) [Example 14-28, trans-4-{hydroxy[5-(4-methyl-6-{[4-(trifluoromethyl)pyridin-2-yl]amino}pyridin-2-yl)-1,3-thiazol-2-yl]methyl}cyclohexanecarboxylic acid]

Same assay, conditions: recombinant human GST-Syk 5 pM, ATP 25 μM; class symbols; read-out: rhSyk activity (IC50)

IC50 [nM]	SMILES
100 to 1000	CCCCOC(=O)[C@H]1CC[C@H]([C@@](C)(O)c2ncc(-c3cc(C)cc(Nc4cc(C)c(F)cn4)n3)s2)CC1 (single isomer, unassigned) [Example 9, Enantiomer 1, butyl trans-4-[1-(5-{6-[(5-fluoro-4-methylpyridine-2-yl)amino]-4-methylpyridine-2-yl}-1,3-thiazol-2-yl)-1-hydroxyethyl]cyclohexanecarboxylate]
100 to 1000	CCCCOC(=O)[C@H]1CC[C@H]([C@@](C)(O)c2ncc(-c3cc(C)cc(Nc4cc(C)c(F)cn4)n3)s2)CC1 (single isomer, unassigned) [Example 9, Enantiomer 2, butyl trans-4-[1-(5-{6-[(5-fluoro-4-methylpyridine-2-yl)amino]-4-methylpyridine-2-yl}-1,3-thiazol-2-yl)-1-hydroxyethyl]cyclohexanecarboxylate]
100 to 1000	CCCCOC(=O)[C@H]1CC[C@H](C(C)(O)c2ncc(-c3cc(C)cc(Nc4cc(C(F)(F)F)ccn4)n3)s2)CC1 (single isomer, unassigned) [Example 14, Step 1, butyl trans-4-{(1R or 1S)-1-hydroxy-1-[5-(4-methyl-6-{[4-(trifluoromethyl)pyridin-2-yl]amino}pyridin-2-yl)-1,3-thiazol-2-yl]ethyl}cyclohexanecarboxylate]
≤ 100	Cc1cc(Nc2cc(C(F)F)ccn2)nc(-c2cnc(C(C)(O)[C@H]3CC[C@H](C(=O)O)CC3)s2)c1 (single isomer, unassigned) [Example 14-4, trans-4-{1-[5-(6-{[4-(difluoromethyl)pyridin-2-yl]amino}-4-methylpyridin-2-yl)-1,3-thiazol-2-yl]-1-hydroxyethyl}cyclohexanecarboxylic acid]
≤ 100	Cc1cc(Nc2cc(C(F)(F)F)ccn2)nc(-c2cnc(C(O)(C3CC3)[C@H]3CC[C@H](C(=O)O)CC3)s2)c1 (single isomer, unassigned) [Example 14-17, trans-4-{cyclopropyl(hydroxy)[5-(4-methyl-6-{[4-(trifluoromethyl)pyridin-2-yl]amino}pyridin-2-yl)-1,3-thiazol-2-yl]methyl}cyclohexanecarboxylic acid]
≤ 100	Cc1cc(Nc2cc(C(F)(F)F)ccn2)nc(-c2cnc(C(O)(C3CC3)[C@H]3CC[C@H](C(=O)O)CC3)s2)c1 (single isomer, unassigned) [Example 14-18, trans-4-{cyclopropyl(hydroxy)[5-(4-methyl-6-{[4-(trifluoromethyl)pyridin-2-yl]amino}pyridin-2-yl)-1,3-thiazol-2-yl]methyl}cyclohexanecarboxylic acid]
≤ 100	Cc1cc(Nc2cc(C(F)(F)F)ccn2)nc(-c2cnc(C(O)([C@H]3CC[C@H](C(=O)O)CC3)C(F)(F)F)s2)c1 (single isomer, unassigned) [Example 14-19, trans-4-{2,2,2-trifluoro-1-hydroxy-1-[5-(4-methyl-6-{[4-(trifluoromethyl)pyridin-2-yl]amino}pyridin-2-yl)-1,3-thiazol-2-yl]ethyl}cyclohexanecarboxylic acid]
≤ 100	Cc1cc(Nc2cc(C(F)(F)F)ccn2)nc(-c2cnc(C(O)([C@H]3CC[C@H](C(=O)O)CC3)C(F)(F)F)s2)c1 (single isomer, unassigned) [Example 14-20, trans-4-{2,2,2-trifluoro-1-hydroxy-1-[5-(4-methyl-6-{[4-(trifluoromethyl)pyridin-2-yl]amino}pyridin-2-yl)-1,3-thiazol-2-yl]ethyl}cyclohexanecarboxylic acid]
≤ 100	CCC(O)(c1ncc(-c2cc(C)cc(Nc3cc(OC(C)C)ccn3)n2)s1)[C@H]1CC[C@H](C(=O)O)CC1 (single isomer, unassigned) [Example 14-21, trans-4-{1-hydroxy-1-[5-(4-methyl-6-{[4-(propan-2-yloxy)pyridin-2-yl]amino}pyridin-2-yl)-1,3-thiazol-2-yl]propyl}cyclohexanecarboxylic acid]
≤ 100	CCC(O)(c1ncc(-c2cc(C)cc(Nc3cc(OC(C)C)ccn3)n2)s1)[C@H]1CC[C@H](C(=O)O)CC1 (single isomer, unassigned) [Example 14-22, trans-4-{1-hydroxy-1-[5-(4-methyl-6-{[4-(propan-2-yloxy)pyridin-2-yl]amino}pyridin-2-yl)-1,3-thiazol-2-yl]propyl}cyclohexanecarboxylic acid]
≤ 100	Cc1cc(Nc2cc(OC(C)C)ccn2)nc(-c2cnc(C(O)(C3CC3)[C@H]3CC[C@H](C(=O)O)CC3)s2)c1 (single isomer, unassigned) [Example 14-23, trans-4-{cyclopropyl(hydroxy)[5-(4-methyl-6-{[4-(propan-2-yloxy)pyridin-2-yl]amino}pyridin-2-yl)-1,3-thiazol-2-yl]methyl}cyclohexanecarboxylic acid]
≤ 100	Cc1cc(Nc2cc(OC(C)C)ccn2)nc(-c2cnc(C(O)(C3CC3)[C@H]3CC[C@H](C(=O)O)CC3)s2)c1 (single isomer, unassigned) [Example 14-24, trans-4-{cyclopropyl(hydroxy)[5-(4-methyl-6-{[4-(propan-2-yloxy)pyridin-2-yl]amino}pyridin-2-yl)-1,3-thiazol-2-yl]methyl}cyclohexanecarboxylic acid]
≤ 100	Cc1cc(Nc2cc(OC(C)C)ccn2)nc(-c2cnc(C(O)([C@H]3CC[C@H](C(=O)O)CC3)C(F)(F)F)s2)c1 (single isomer, unassigned) [Example 14-25, trans-4-{2,2,2-trifluoro-1-hydroxy-1-[5-(4-methyl-6-{[4-(propan-2-yloxy)pyridin-2-yl]amino}pyridin-2-yl)-1,3-thiazol-2-yl]ethyl}cyclohexanecarboxylic acid]
≤ 100	Cc1cc(Nc2cc(OC(C)C)ccn2)nc(-c2cnc(C(O)([C@H]3CC[C@H](C(=O)O)CC3)C(F)(F)F)s2)c1 (single isomer, unassigned) [Example 14-26, trans-4-{2,2,2-trifluoro-1-hydroxy-1-[5-(4-methyl-6-{[4-(propan-2-yloxy)pyridin-2-yl]amino}pyridin-2-yl)-1,3-thiazol-2-yl]ethyl}cyclohexanecarboxylic acid]
≤ 100	Cc1cc(Nc2cc(C(F)(F)F)ccn2)nc(-c2cnc(C(O)[C@H]3CC[C@H](C(=O)O)CC3)s2)c1 (single isomer, unassigned) [Example 14-28, trans-4-{hydroxy[5-(4-methyl-6-{[4-(trifluoromethyl)pyridin-2-yl]amino}pyridin-2-yl)-1,3-thiazol-2-yl]methyl}cyclohexanecarboxylic acid]
≤ 100	Cc1cc(Nc2cc(C(F)(F)F)ccn2)nc(-c2cnc(C(O)[C@H]3CC[C@H](C(=O)O)CC3)s2)c1 (single isomer, unassigned) [Example 14-29, trans-4-{hydroxy[5-(4-methyl-6-{[4-(trifluoromethyl)pyridin-2-yl]amino}pyridin-2-yl)-1,3-thiazol-2-yl]methyl}cyclohexanecarboxylic acid]
≤ 100	Cc1ccnc(Nc2cccc(-c3cnc(C(C)(O)[C@H]4CC[C@H](C(=O)O)CC4)s3)n2)c1 (single isomer, unassigned) [Example 14-39, trans-4-[1-hydroxy-1-(5-{6-[(4-methylpyridin-2-yl)amino]pyridin-2-yl}-1,3-thiazol-2-yl)ethyl]cyclohexanecarboxylic acid]
≤ 100	Cc1ccnc(Nc2cccc(-c3cnc(C(C)(O)[C@H]4CC[C@H](C(=O)O)CC4)s3)n2)c1 (single isomer, unassigned) [Example 14-40, trans-4-[1-hydroxy-1-(5-{6-[(4-methylpyridin-2-yl)amino]pyridin-2-yl}-1,3-thiazol-2-yl)ethyl]cyclohexanecarboxylic acid]
≤ 100	CC(O)(c1ncc(-c2cc(Cl)cc(Nc3cc(C(F)(F)F)ccn3)n2)s1)[C@H]1CC[C@H](C(=O)O)CC1 (single isomer, unassigned) [Example 14-52, trans-4-{1-[5-(4-chloro-6-{[4-(trifluoromethyl)pyridin-2-yl]amino}pyridin-2-yl)-1,3-thiazol-2-yl]-1-hydroxyethyl}cyclohexanecarboxylic acid]
≤ 100	CC(O)(c1ncc(-c2cc(C(F)F)cc(Nc3cc(C(F)(F)F)ccn3)n2)s1)[C@H]1CC[C@H](C(=O)O)CC1 (single isomer, unassigned) [Example 14-53, trans-4-{1-[5-(4-(difluoromethyl)-6-{[4-(trifluoromethyl)pyridin-2-yl]amino}pyridin-2-yl]-1,3-thiazol-2-yl}-1-hydroxyethyl)cyclohexanecarboxylic acid]
≤ 100	CC(O)(c1ncc(-c2cc(C3CC3)cc(Nc3cc(C(F)(F)F)ccn3)n2)s1)[C@H]1CC[C@H](C(=O)O)CC1 (single isomer, unassigned) [Example 14-54]
≤ 100	Cc1cc(Nc2cc(C(F)(F)F)ccn2)nc(-c2cnc(C(C)(O)C3CCC(C(=O)O)C(C)C3)s2)c1 (single isomer, unassigned) [Example 15-1, 4-{1-hydroxy-1-[5-(4-methyl-6-{[4-(trifluoromethyl)pyridin-2-yl]amino}pyridin-2-yl)-1,3-thiazol-2-yl]ethyl}-2-methylcyclohexanecarboxylic acid]
